“Also recorded” adds a separate entry of the source.

Data set [1] concerns the target T1, GPBAR1 (Homo sapiens, UniProt Q8TDU6).
T1 construct: expressed in transfected cells; host or cells: HEK-293T
T1 sequence (Q8TDU6 1-330): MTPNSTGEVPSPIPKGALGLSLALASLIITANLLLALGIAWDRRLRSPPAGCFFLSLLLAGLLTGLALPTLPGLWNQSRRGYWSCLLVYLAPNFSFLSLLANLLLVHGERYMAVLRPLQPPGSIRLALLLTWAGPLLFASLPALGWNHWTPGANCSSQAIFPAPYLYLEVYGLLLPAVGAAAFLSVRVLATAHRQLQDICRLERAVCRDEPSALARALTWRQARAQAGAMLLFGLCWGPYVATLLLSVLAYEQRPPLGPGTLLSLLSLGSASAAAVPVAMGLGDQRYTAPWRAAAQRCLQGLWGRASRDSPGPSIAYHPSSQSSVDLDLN
The experiment in a line: GPBAR1 antagonism, transactivation assay in HEK-293T cells stimulated with TLCA. The data set is classed as cell-based. From the text: Figure 9 Antagonism on GPBAR1 by transactivation assay. (A) HEK-293T cells were transfected as described in Fig. 8. […] Results are expressed as mean ± standard error.
(§1) To investigate GPBAR1 activation, HEK-293T cells were transiently transfected with Fugene HD reagent (Promega) using the following vectors: pCMVSPORT6-human GPBAR1, pGL4.29 (Promega), a reporter vector containing a cAMP response element (CRE) cloned upstream to the luciferase reporter gene luc2P and pGL4.70. […] Dose-response curves were performed in HEK-293T cells transfected as described above and treated with increasing concentrations of 9 and 21 (from 100 nM to 50 μM). […] At 18 h post stimulations, cellular lysate was assayed for luciferase and renilla activities using the Dual-Luciferase Reporter assay system (E1980, Promega). Luminescence was measured using Glomax 20/20 luminometer (Promega). Luciferase activities were normalized with Renilla activities.

The target of data set [2] is T1, GPBAR1. The data set is described as follows: GPBAR1 agonism, CRE-luciferase transactivation assay in transfected HEK-293T cells. Type of data set: cell-based. The note with it: HEK-293T, compounds at 10 μM; TLCA 10 μM as positive control. The protocol: (A) HEK-293T cells were co-transfected with GPBAR1 and a reporter gene containing a cAMP responsive element in front of the luciferase gene. Twenty-four hour post transfection cells were stimulated with 7–21 (10 μM). Luciferase activity served as a measure of the rise in intracellular cAMP following activation of GPBAR1. […] Twenty-four hour post transfection cells were stimulated with increasing concentrations of each agent: range from 100 nM to 50 μM. Results are expressed as mean ± standard error.
as §1

In the next data set the target is T2, FXR (Homo sapiens, UniProt Q96RI1).
T2 construct: expressed in transfected cells; host or cells: HepG2
T2 sequence (Q96RI1 1-486): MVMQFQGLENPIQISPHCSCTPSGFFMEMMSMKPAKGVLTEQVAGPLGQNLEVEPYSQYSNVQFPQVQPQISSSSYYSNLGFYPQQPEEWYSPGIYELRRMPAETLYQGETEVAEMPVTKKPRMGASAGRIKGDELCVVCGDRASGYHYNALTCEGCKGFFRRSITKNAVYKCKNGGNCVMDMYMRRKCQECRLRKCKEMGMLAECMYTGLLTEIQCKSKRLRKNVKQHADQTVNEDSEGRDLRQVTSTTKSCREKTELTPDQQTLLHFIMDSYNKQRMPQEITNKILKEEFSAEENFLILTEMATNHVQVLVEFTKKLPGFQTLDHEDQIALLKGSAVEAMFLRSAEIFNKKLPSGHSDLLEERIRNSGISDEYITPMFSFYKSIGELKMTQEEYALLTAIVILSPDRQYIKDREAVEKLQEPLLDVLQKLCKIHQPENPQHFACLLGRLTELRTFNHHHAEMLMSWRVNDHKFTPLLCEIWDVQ
T2 sequence (P19793 1-462 partner): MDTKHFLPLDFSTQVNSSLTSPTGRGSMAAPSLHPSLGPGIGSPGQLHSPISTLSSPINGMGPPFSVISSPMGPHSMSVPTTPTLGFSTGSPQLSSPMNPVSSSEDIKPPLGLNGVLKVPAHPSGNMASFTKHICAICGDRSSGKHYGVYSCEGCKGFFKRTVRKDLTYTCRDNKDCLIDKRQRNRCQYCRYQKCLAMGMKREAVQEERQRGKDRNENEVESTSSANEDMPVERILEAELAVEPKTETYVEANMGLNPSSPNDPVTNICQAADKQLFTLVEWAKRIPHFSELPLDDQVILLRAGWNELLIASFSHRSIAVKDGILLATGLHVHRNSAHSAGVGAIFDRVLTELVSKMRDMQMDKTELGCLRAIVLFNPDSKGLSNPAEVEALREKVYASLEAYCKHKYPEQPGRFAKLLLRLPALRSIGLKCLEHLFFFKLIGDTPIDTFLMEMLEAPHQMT
The data set is described as follows: FXR transactivation luciferase reporter assay in transfected HepG2 cells. The data set is classed as cell-based. The method, then: Figure 6 Transactivation assays on FXR. (A) HepG2 cells were transfected with pSG5-FXR, pSG5-RXR, pCMV-βgal, and p(hsp27)TKLUC vectors. […] Twenty-four hour post transfection cells were stimulated with increasing concentrations of each agent: range from 100 nM to 10 μM.
To evaluate the transcriptional activity of FXR, HepG2 cells were transiently transfected with Fugene HD reagent (Promega) using the followings plasmids: pCMVSPORT-humanFXR, pSG5RXR, p(hsp27)TKLUC and pGL4.70, a plasmid containing the Renilla gene used for luciferase normalization.
(Reporter assays use an easily measured gene product as a stand-in for the process of interest.)

By IC50 is commonly meant the point on the concentration scale where inhibition reaches its midpoint. For orientation: EC50 means the concentration that produces a half-maximal response. For the compound `CC[C@H]1[C@@H](O)[C@@H]2[C@H](CC[C@]3(C)[C@@H]([C@H](C)CCC(=O)O)CC[C@@H]23)[C@@]2(C)CCCC[C@@H]12` [compound 10, 6α-ethyl-7α-hydroxy-5β-cholan-24-oic acid], the “GPBAR1 antagonism (in words)” value on GPBAR1 [1] (HEK-293T, 10 μM TLCA in combination with 25 μM compound) is listed as “showed inhibitory activity against GPBAR1 transactivation induced by TLCA”. Also, the IC50 on GPBAR1 [1] (read-out: IC50, antagonism of TLCA-induced GPBAR1 transactivation) was 11 µM. The “GPBAR1 agonism (in words)” value on GPBAR1 [2] is “inactive towards GPBAR1 in agonistic mode; also recorded: devoid of any activity toward GPBAR1 in agonistic mode”. The “Tauro-conjugated bile acids (tMu, tCA, tHCA, tCDCA, tDCA, tLCA), plasmatic concentration” value (mice, 15 mg/kg ip, 6 h) is given as “unaffected”. Moreover, the “Blood concentration of 7α-hydroxy-4-cholesten-3-one” value (mice, 15 mg/kg, indirect measure of CYP7A1 activity) is given as “reduced”. Moreover, the “Form of the compound found in blood” value (mouse, in vivo, ip, 15 mg/kg) was “only found in the conjugated form with taurine”. Also, the 50% effective concentration (EC50) on FXR (HepG2 cells transfected with FXR, luciferase reporter, 100 nM to 10 μM) was 0.95 µM. For the same compound, the “FXR transactivation activity (in words)” value on FXR (HepG2 cells, compounds at 10 μM, CDCA 10 μM and 6-ECDCA 1 μM as positive controls) was “potent agonists of FXR”.

The record behind these values is paper PMC4704022, “Insights on FXR selective modulation. Speculation on bile acid chemical space in the discovery of potent and selective agonists” (Scientific Reports, 2016).
